What was measured:
Assay type in all cases: in vivo, C57BL/6 mice
[1] = test system: collagen permeated into epididymal adipose tissue of fibrosis model mice; test: Picrosirius staining of epididymal adipose tissue of fibrosis model mice; conditions: adipose tissue (FIG. 2); high fat and high-carbohydrate diet mice; 10 mg/kg intraperitoneal for 4 weeks; compared to vehicle treatment group
Experimental: (§1) First, after stabilizing 5-week old male C57BL/6 mice for one week, a fibrosis model was constructed by feeding the mice with a high fat diet and a high-carbohydrate diet for 12 weeks, thereby inducing fibrosis of the mice. After that, the mice were divided into total four groups, and a vehicle (negative control group), 10mg/kg of rimonabant (positive control group), 10 mg/kg of a compound 1, and 10mg/kg of a compound 2 were administered to each of the groups by intraperitoneal injection for 4 weeks. In order to perform an experimental process, the mice were sacrificed, and epididymal adipose and liver tissues were extracted from the sacrificed mice.
(§2) After fixing and embedding the extracted epididymal adipose and liver tissues, paraffin sections were manufactured by slicing the embedded epididymal adipose and liver tissues. After that, fibrosis degrees were analyzed by staining collagen permeated into each of the tissues by using a picrosirius red stain kit.

[2] = test system: collagen permeated into liver tissue of fibrosis model mice; test: Picrosirius staining of liver tissue of fibrosis model mice; conditions: liver tissue (FIG. 4); high fat and high-carbohydrate diet mice; 10 mg/kg intraperitoneal for 4 weeks; compared to vehicle treatment group
Experimental: as §1, §2

[3] = test system: αSMA, TGF-β1, COL6A3, and LOX mRNAs; test: Quantitative real-time PCR on epididymal adipose tissue of fibrosis model mice; conditions: adipose tissue (FIG. 3); 10 mg/kg intraperitoneal for 4 weeks; almost similar to rimonabant 10 mg/kg positive control
Experimental: as §1
(§3) After separating RNA from the extracted epididymal adipose and liver tissues by using a Trizol reagent (Gibco), cDNA templates were produced by using reverse transcriptase. After injecting such produced cDNA templates into SYBR green dyes by using gene-specific nucleotide primers, PCR products were analyzed to obtain analyzed mRNAs by amplifying the cDNA templates injected into SYBR green dyes with a real-time multiplexing amplification system (CFX connect™, Bio-Rad). At this time, the analyzed mRNAs were αSMA, TGF-β1, COL6A3, and LOX mRNAs, and used primer sequences are as described in the following [Table 1].

[4] = test system: αSMA, TGF-β1, COL6A3, and LOX mRNAs; test: Quantitative real-time PCR on liver tissue of fibrosis model mice; conditions: liver tissue (FIG. 5); 10 mg/kg intraperitoneal for 4 weeks; almost similar to rimonabant 10 mg/kg positive control
Experimental: as §1, §3

SMILES	accumulation degrees stained with red color (picrosirius, collagen) [1]	accumulation degrees stained with red color (picrosirius, collagen) [2]	expression of four gene mRNAs (αSMA, TGF-β1, COL6A3, LOX) [3]	expression of four gene mRNAs (αSMA, TGF-β1, COL6A3, LOX) [4]
Cc1c(/C=C/C(=O)NCc2cccc(Cl)c2)nn(-c2ccc(Cl)cc2Cl)c1-c1ccc(Cl)cc1 [compound 1, (E)-N-(3-chlorobenzyl)-3-(5-(4-chlorophenyl)-1-(2,4-dichlorophenyl)-4-methyl-1H-pyrazole-3-yl)acrylamide]	reduced	reduced	inhibited	inhibited
Cc1c(C(=O)C(=O)NCCO)nn(-c2ccc(Cl)cc2Cl)c1-c1ccc(Cl)cc1 [compound 2, 2-(5-(4-chlorophenyl)-1-(2,4-dichlorophenyl)-4-methyl-1H-pyrazole-3-yl)-N-(2-hydroxyethyl)-2-oxo-acetamide]	reduced	reduced	inhibited	inhibited

Reference: patent US20240382455A1, “COMPOSITION CONTAINING 1H-PYRAZOLE-3-AMIDE-BASED COMPOUND DERIVATIVE FOR PREVENTION OR TREATMENT OF FIBROSIS” (TSD LIFE SCIENCES CO., LTD., priority 2017, published 2024)
